Experimental data as given in patent US20020137929A1, “1 - (3-heterocyclylphenyl) isothiourea, -isourea, -guanidine and -amidine herbicidal agents” (Intellectual Property Department, BASF Aktiengesellschaft, priority 1998, published 2002).

Columns and labels:
ORYSAT (Rice, Tebonnet) = experiment: Postemergence herbicidal evaluation; format: in vivo, Oryza sativa, (L.) Tebonnet; settings: postemergence
How it was run: (§1)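 Two-week-old seedlings sprayed with compound in 50/50 acetone/water plus 0.5% TWEEN 20, at about 0.0156 to 0.500 kg/ha, nozzle at 40 psi. Kept in greenhouse; rated visually 4-5 weeks after treatment on a 0-9 scale versus control, repeat tests averaged.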

[1] = system: IPOHE (Morningglory, Ivyleaf); experiment: Preemergence herbicidal evaluation; format: in vivo, Ipomoea hederacea; settings: rated 4-5 weeks after treatment, rating scale 0-9
How it was run: (§2)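 Each species is sown separately in potting soil over roughly an inch of soil before any emergence. The soil surface then receives an aqueous acetone spray delivering about 0.0156 to 0.500 kg/ha of compound. After four to five weeks, injury is scored from 0 to 9 relative to a control.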

CASOB (Sicklepod) = experiment: Preemergence herbicidal evaluation; format: in vivo, Cassia obtusifolia; settings: rated 4-5 weeks after treatment, rating scale 0-9
How it was run: as §2

[2] = system: CHEAL (Lambsquarters, Common); experiment: Preemergence herbicidal evaluation; format: in vivo, Chenopodium album; settings: rated 4-5 weeks after treatment, rating scale 0-9
How it was run: as §2

[3] = system: TRZAWR (Wheat, Winter, cv Riband); experiment: Preemergence herbicidal evaluation; format: in vivo, Triticum aestivum; settings: rated 4-5 weeks after treatment, rating scale 0-9
How it was run: as §2

ZEAMX (Corn, Field) [4] = experiment: Preemergence herbicidal evaluation; format: in vivo, Zea mays; settings: rated 4-5 weeks after treatment, rating scale 0-9
How it was run: as §2

ZEAMX (Corn, Field) [5] = experiment: Postemergence herbicidal evaluation; format: in vivo, Zea mays; settings: postemergence
How it was run: as §1

SETVI (Foxtail, Green) = experiment: Postemergence herbicidal evaluation; format: in vivo, Setaria viridis; settings: postemergence
How it was run: as §1

ECHCG (Barnyardgrass) [6] = experiment: Postemergence herbicidal evaluation; format: in vivo, Echinochloa crus-galli; settings: postemergence
How it was run: as §1

[7] = system: GLXMAW (Soybean, Williams); experiment: Preemergence herbicidal evaluation; format: in vivo, Glycine max, (L.) Merr. cv Williams; settings: rated 4-5 weeks after treatment, rating scale 0-9
How it was run: as §2

[8] = system: IPOHE (Morningglory, Ivyleaf); experiment: Postemergence herbicidal evaluation; format: in vivo, Ipomoea hederacea; settings: postemergence
How it was run: as §1

[9] = system: CHEAL (Lambsquarters, Common); experiment: Postemergence herbicidal evaluation; format: in vivo, Chenopodium album; settings: postemergence
How it was run: as §1

ABUTH (Velvetleaf) [10] = experiment: Postemergence herbicidal evaluation; format: in vivo, Abutilon theophrasti; settings: postemergence
How it was run: as §1

ABUTH (Velvetleaf) [11] = experiment: Preemergence herbicidal evaluation; format: in vivo, Abutilon theophrasti; settings: rated 4-5 weeks after treatment, rating scale 0-9
How it was run: as §2

ECHCG (Barnyardgrass) [12] = experiment: Preemergence herbicidal evaluation; format: in vivo, Echinochloa crus-galli; settings: rated 4-5 weeks after treatment, rating scale 0-9
How it was run: as §2

Cc1cc(C)cc(CN2C(=O)CSC2=Nc2cc(-n3c(=O)cc(C(F)(F)F)n(C)c3=O)c(F)cc2Cl)c1 [Compound 146, 3-{4-Chloro-5-{[3-(3,5-dimethylbenzyl)-4-oxo-2-thiazolidinylidene]amino}-2-fluorophenyl}-1-methyl-6-(trifluoromethyl)-2,4(1H,3H)-pyrimidinedione]
Herbicidal rating ORYSAT (ORYSAT (Rice, Tebonnet); rate 0.0156 kg/ha): 2.0
Herbicidal rating ORYSAT (ORYSAT (Rice, Tebonnet); rate 0.0313 kg/ha): 3.5
Herbicidal rating ORYSAT (ORYSAT (Rice, Tebonnet); rate 0.0625 kg/ha): 4.0
Preemergence herbicidal rating IPOHE ([1]; rate 0.0156 kg/ha): 0.0
Preemergence herbicidal rating IPOHE ([1]; rate 0.0313 kg/ha): 0.0
Preemergence herbicidal rating IPOHE ([1]; rate 0.0625 kg/ha): 0.0
Preemergence herbicidal rating IPOHE ([1]; rate 0.1250 kg/ha): 0.0
Preemergence herbicidal rating IPOHE ([1]; rate 0.2500 kg/ha): 0.0
Preemergence herbicidal rating CASOB (CASOB (Sicklepod); rate 0.0156 kg/ha): 0.0
Preemergence herbicidal rating CASOB (CASOB (Sicklepod); rate 0.0313 kg/ha): 0.0
Preemergence herbicidal rating CASOB (CASOB (Sicklepod); rate 0.0625 kg/ha): 0.0
Preemergence herbicidal rating CASOB (CASOB (Sicklepod); rate 0.1250 kg/ha): 1.0
Preemergence herbicidal rating CASOB (CASOB (Sicklepod); rate 0.2500 kg/ha): 1.0
Preemergence herbicidal rating CHEAL ([2]; rate 0.0156 kg/ha): 0.0
Preemergence herbicidal rating CHEAL ([2]; rate 0.0313 kg/ha): 9.0
Preemergence herbicidal rating CHEAL ([2]; rate 0.0625 kg/ha): 9.0
Preemergence herbicidal rating CHEAL ([2]; rate 0.1250 kg/ha): 9.0
Preemergence herbicidal rating CHEAL ([2]; rate 0.2500 kg/ha): 9.0
Preemergence herbicidal rating TRZAWR ([3]; rate 0.0156 kg/ha): 0.0
Preemergence herbicidal rating TRZAWR ([3]; rate 0.0313 kg/ha): 0.0
Preemergence herbicidal rating TRZAWR ([3]; rate 0.0625 kg/ha): 0.0
Preemergence herbicidal rating TRZAWR ([3]; rate 0.1250 kg/ha): 0.0
Preemergence herbicidal rating TRZAWR ([3]; rate 0.2500 kg/ha): 1.0
Preemergence herbicidal rating ZEAMX (ZEAMX (Corn, Field) [4]; rate 0.0156 kg/ha): 0.0
Preemergence herbicidal rating ZEAMX (ZEAMX (Corn, Field) [4]; rate 0.0313 kg/ha): 0.0
Preemergence herbicidal rating ZEAMX (ZEAMX (Corn, Field) [4]; rate 0.0625 kg/ha): 0.0
Preemergence herbicidal rating ZEAMX (ZEAMX (Corn, Field) [4]; rate 0.1250 kg/ha): 0.0
Preemergence herbicidal rating ZEAMX (ZEAMX (Corn, Field) [4]; rate 0.2500 kg/ha): 0.0
Herbicidal rating ZEAMX (ZEAMX (Corn, Field) [5]; rate 0.0156 kg/ha): 4.0
Herbicidal rating ZEAMX (ZEAMX (Corn, Field) [5]; rate 0.0313 kg/ha): 4.5
Herbicidal rating ZEAMX (ZEAMX (Corn, Field) [5]; rate 0.0625 kg/ha): 4.5
Herbicidal rating SETVI (SETVI (Foxtail, Green); rate 0.0156 kg/ha): 1.0
Herbicidal rating SETVI (SETVI (Foxtail, Green); rate 0.0313 kg/ha): 2.0
Herbicidal rating SETVI (SETVI (Foxtail, Green); rate 0.0625 kg/ha): 3.0
Herbicidal rating ECHCG (ECHCG (Barnyardgrass) [6]; rate 0.0156 kg/ha): 1.0
Herbicidal rating ECHCG (ECHCG (Barnyardgrass) [6]; rate 0.0313 kg/ha): 1.0
Herbicidal rating ECHCG (ECHCG (Barnyardgrass) [6]; rate 0.0625 kg/ha): 2.0
Preemergence herbicidal rating GLXMAW ([7]; rate 0.0156 kg/ha): 0.0
Preemergence herbicidal rating GLXMAW ([7]; rate 0.0313 kg/ha): 0.0
Preemergence herbicidal rating GLXMAW ([7]; rate 0.0625 kg/ha): 0.0
Preemergence herbicidal rating GLXMAW ([7]; rate 0.1250 kg/ha): 0.0
Preemergence herbicidal rating GLXMAW ([7]; rate 0.2500 kg/ha): 1.0
Herbicidal rating IPOHE ([8]; rate 0.0156 kg/ha): 9.0
Herbicidal rating IPOHE ([8]; rate 0.0313 kg/ha): 9.0
Herbicidal rating IPOHE ([8]; rate 0.0625 kg/ha): 9.0
Herbicidal rating CHEAL ([9]; rate 0.0156 kg/ha): 9.0
Herbicidal rating CHEAL ([9]; rate 0.0313 kg/ha): 9.0
Herbicidal rating CHEAL ([9]; rate 0.0625 kg/ha): 9.0
Herbicidal rating ABUTH (ABUTH (Velvetleaf) [10]; rate 0.0156 kg/ha): 9.0
Herbicidal rating ABUTH (ABUTH (Velvetleaf) [10]; rate 0.0313 kg/ha): 9.0
Herbicidal rating ABUTH (ABUTH (Velvetleaf) [10]; rate 0.0625 kg/ha): 9.0
Preemergence herbicidal rating ABUTH (ABUTH (Velvetleaf) [11]; rate 0.0156 kg/ha): 0.0
Preemergence herbicidal rating ABUTH (ABUTH (Velvetleaf) [11]; rate 0.0625 kg/ha): 1.0
Preemergence herbicidal rating ABUTH (ABUTH (Velvetleaf) [11]; rate 0.1250 kg/ha): 9.0
Preemergence herbicidal rating ABUTH (ABUTH (Velvetleaf) [11]; rate 0.2500 kg/ha): 9.0
Preemergence herbicidal rating ECHCG (ECHCG (Barnyardgrass) [12]; rate 0.0156 kg/ha): 0.0
Preemergence herbicidal rating ECHCG (ECHCG (Barnyardgrass) [12]; rate 0.0313 kg/ha): 0.0
Preemergence herbicidal rating ECHCG (ECHCG (Barnyardgrass) [12]; rate 0.0625 kg/ha): 0.0
Preemergence herbicidal rating ECHCG (ECHCG (Barnyardgrass) [12]; rate 0.1250 kg/ha): 0.0
Preemergence herbicidal rating ECHCG (ECHCG (Barnyardgrass) [12]; rate 0.2500 kg/ha): 0.0

Cc1ccc(CN2C(=O)CSC2=Nc2cc(-n3c(=O)cc(C(F)(F)F)n(C)c3=O)c(F)cc2Cl)cc1Cl [Compound 149, 3-{4-Chloro-5-{[3-(3-chloro-4-methylbenzyl)-4-oxo-2-thiazolidinylidene]amino}-2-fluorophenyl}-1-methyl-6-(trifluoromethyl)-2,4(1H,3H)-pyrimidinedione]
Herbicidal rating ORYSAT (ORYSAT (Rice, Tebonnet); rate 0.0156 kg/ha): 0.5
Herbicidal rating ORYSAT (ORYSAT (Rice, Tebonnet); rate 0.0313 kg/ha): 1.0
Herbicidal rating ORYSAT (ORYSAT (Rice, Tebonnet); rate 0.0625 kg/ha): 1.0
Preemergence herbicidal rating IPOHE ([1]; rate 0.1250 kg/ha): 0.0
Preemergence herbicidal rating IPOHE ([1]; rate 0.2500 kg/ha): 2.0
Preemergence herbicidal rating CASOB (CASOB (Sicklepod); rate 0.1250 kg/ha): 0.0
Preemergence herbicidal rating CASOB (CASOB (Sicklepod); rate 0.2500 kg/ha): 0.0
Preemergence herbicidal rating CHEAL ([2]; rate 0.1250 kg/ha): 3.0
Preemergence herbicidal rating CHEAL ([2]; rate 0.2500 kg/ha): 9.0
Preemergence herbicidal rating TRZAWR ([3]; rate 0.1250 kg/ha): 0.0
Preemergence herbicidal rating TRZAWR ([3]; rate 0.2500 kg/ha): 2.0
Preemergence herbicidal rating ZEAMX (ZEAMX (Corn, Field) [4]; rate 0.1250 kg/ha): 0.0
Preemergence herbicidal rating ZEAMX (ZEAMX (Corn, Field) [4]; rate 0.2500 kg/ha): 2.0
Herbicidal rating ZEAMX (ZEAMX (Corn, Field) [5]; rate 0.0156 kg/ha): 4.0
Herbicidal rating ZEAMX (ZEAMX (Corn, Field) [5]; rate 0.0313 kg/ha): 4.5
Herbicidal rating ZEAMX (ZEAMX (Corn, Field) [5]; rate 0.0625 kg/ha): 4.5
Herbicidal rating SETVI (SETVI (Foxtail, Green); rate 0.0156 kg/ha): 0.0
Herbicidal rating SETVI (SETVI (Foxtail, Green); rate 0.0313 kg/ha): 0.0
Herbicidal rating SETVI (SETVI (Foxtail, Green); rate 0.0625 kg/ha): 0.0
Herbicidal rating ECHCG (ECHCG (Barnyardgrass) [6]; rate 0.0156 kg/ha): 0.0
Herbicidal rating ECHCG (ECHCG (Barnyardgrass) [6]; rate 0.0313 kg/ha): 0.0
Herbicidal rating ECHCG (ECHCG (Barnyardgrass) [6]; rate 0.0625 kg/ha): 0.0
Preemergence herbicidal rating GLXMAW ([7]; rate 0.1250 kg/ha): 3.0
Preemergence herbicidal rating GLXMAW ([7]; rate 0.2500 kg/ha): 7.0
Herbicidal rating IPOHE ([8]; rate 0.0156 kg/ha): 9.0
Herbicidal rating IPOHE ([8]; rate 0.0313 kg/ha): 9.0
Herbicidal rating IPOHE ([8]; rate 0.0625 kg/ha): 9.0
Herbicidal rating CHEAL ([9]; rate 0.0156 kg/ha): 3.0
Herbicidal rating CHEAL ([9]; rate 0.0313 kg/ha): 3.0
Herbicidal rating CHEAL ([9]; rate 0.0625 kg/ha): 4.0
Herbicidal rating ABUTH (ABUTH (Velvetleaf) [10]; rate 0.0156 kg/ha): 4.0
Herbicidal rating ABUTH (ABUTH (Velvetleaf) [10]; rate 0.0313 kg/ha): 8.0
Herbicidal rating ABUTH (ABUTH (Velvetleaf) [10]; rate 0.0625 kg/ha): 9.0
Preemergence herbicidal rating ABUTH (ABUTH (Velvetleaf) [11]; rate 0.1250 kg/ha): 3.0
Preemergence herbicidal rating ABUTH (ABUTH (Velvetleaf) [11]; rate 0.2500 kg/ha): 7.0
Preemergence herbicidal rating ECHCG (ECHCG (Barnyardgrass) [12]; rate 0.1250 kg/ha): 0.0
Preemergence herbicidal rating ECHCG (ECHCG (Barnyardgrass) [12]; rate 0.2500 kg/ha): 0.0
